Reference: patent US20050064382A1, “Method of prevention of lysosomal leakage in eukaryotic cells by using 6-methyluracil based water-soluble compounds and method of producing thereof” (priority 2002, published 2005)

Tests used:
Water solubility = assay type: physicochemical
Drosophila [1] = test: Sterol-deficit diet and both drugs: frequency of X-chromosomes loss in late oocytes of Drosophila; assay type: in vivo; details: yeast of wild type
Source text: The classic genetic model was used, based on the well-known method: the frequency of mutations in Drosophila (fruit flies) caused by X-rays. It is known that the frequency of these mutations can be increased by adding to the food of females certain membrane destabilizers (we used Polyene Antibiotics—Amphotericin B), or by the use of a special diet. Like all insects, Drosophila obtain all of their sterols from food (yeast for Drosophila). A special diet rich with Nistatin (Polyene antibiotic) resistant yeast was used.
The frequency of the loss of x-chromosomes (males excluded) was measured after crossing with the […]. Females were given a dose of 1000 Roentgens 5 days before being given the food additive or “special diet”.
Influence of sterol-deficit diet and both drugs on the frequency of X-chromosomes loss in late oocytes of Drosophila. Groups 1-4 received yeast of wild type, groups 5,6 (diet) received nistatin resistant yeasts meaning groups 5,6 had abnormal sterols in membranes: […]

Drosophila [2] = test: X-ray caused loss of X-chromosomes in late oocyte of Drosophila; assay type: in vivo; details: 1000 Roentgens

| SMILES | solubility (Water solubility) [µg/mL] | Frequency of X-Chromosomes loss, % (Drosophila [1]) [%] | Frequency of the loss of X-chromosomes, % (Drosophila [2]; 1.0 mkg/female) [%] | Frequency of the loss of X-chromosomes, % (Drosophila [2]; 5.0 mkg/female) [%] | Frequency of the loss of X-chromosomes, % (Drosophila [2]; 10.0 mkg/female) [%] | Frequency of the loss of X-chromosomes, % (Drosophila [2]; 15.0 mkg/female) [%] | Frequency of the loss of X-chromosomes, % (Drosophila [2]; 20.0 mkg/female) [%] |
| --- | --- | --- | --- | --- | --- | --- | --- |
| O=C1CCC(N2C(=O)c3ccccc3C2=O)C(=O)N1 (stereo not shown) [thalidomides, thalidomide] | < 3000 | – | – | – | – | – | – |
| C[C@@H]1[C@H](O)[C@@H](C)/C=C/C=C/C=C/C=C/C=C/C=C/C=C/[C@H](O[C@@H]2O[C@H](C)[C@@H](O)[C@H](N)[C@@H]2O)C[C@@H]2O[C@](O)(C[C@@H](O)C[C@@H](O)[C@H](O)CC[C@@H](O)C[C@@H](O)CC(=O)O[C@H]1C)C[C@H](O)[C@H]2C(=O)O [Amphotericin B, reference compound] | – | 4.3 ± 0.29 | 1.4 ± 0.19 | 2.1 ± 0.21 | 3.6 ± 0.35 | 4.1 ± 0.41 | 4.2 ± 0.61 |
